Source: US6849596B1, “Regulatory/unfolding peptides of ezrin” (priority 1999, dated 2005)

Key:
[1] = tested on: antibody forming cells against sheep erythocytes (SRBC); assay: Antibody forming cells against sheep erythocytes (SRBC) in mice, plaque count; format: in vivo; settings: four days after SRBC, thirty mice per data point
Procedure: Activity of Hepreceptor Peptides Enhancing the Antibody-Dependent Cytotoxic Response in […] to Sheep Red Blood Cells (SRBC) in Mice
The influence of Hepreceptor peptides on the activation of antibody forming cells against sheep erythocytes (SRBC) in Mice (CBA-C57B1 Fi hybrids. 2 months old, weight 18-22 grams) was determined. Mice were first injected intraperitoneally using either 0.5 ml sterile saline as a control or Hepreceptor peptides in the same volume of saline. 30 minutes after the injection of Hepreceptor peptides, a cell suspension containing 5 million SRBC was administered intraperitoneally to each mouse. Four days after the immunisation, the mice were killed by cervical dislocation and the spleens were obtained aseptically. Each spleen was homogenised in 2 ml of Medium 199, then 100 microliters of this suspension was put into 1 ml of prepared agarose in Medium 199 (stored in water bath at 48° C.), SRBC suspension was added, resulting in a final concentration of 1% agarose. The Im1 of agarose-cell mixture was agitated then transferred to petri dish to set. When the agarose became solid, the petri dish was incubated for 1 hour at 37° C. then 0.5 ml of 1-in-20 diluted guinea pig serum in Medium 199 was added on top of agarose gel as a source of complement. The incubation was continued for another 1 hour. The dishes were then visualised using an 8×binocular microscope and the number of plaques counted (each plaque equivalent to one antibody secreting mouse spleen cell). The results were expressed both as the number of antibody secreting cells per one million nucleated spleen cells and the number of antibody secreting cells per whole spleen.
Averaged data (from thirty mice per data point) of the number of antibody forming cells per one million nucleated spleen cells. The data was re-based relative to 100 for each control group.

[2] = tested on: IgG serum antibody response to Ovalbumin; assay: Adjuvant activity: IgG serum antibody response to Ovalbumin in mice; format: in vivo; settings: for IgG response recorded as OD: 50 micrograms Ovalbumin, two weeks, sera 1 to 100; for IgG response recorded as OD then rebased relative to 100 for each control: control = 100
Procedure: Adjuvant Activity of Hepreceptor Peptides Enhancing the IgG Serum Antibody Response to Ovalbumin in Mice
The IgG response in mice two weeks after an injection of 50 micrograms of Ovalbumin plus various concentrations of different hepreceptor peptides was determined. IgG response was measured by Optical Density (OD) of a 1 to 100 dilution of mouse sera in the presence of Ovalbumin.
IgG response recorded as OD
IgG response recorded as OD then data rebased relative to 100 for each control

[3] = tested on: Salmonella typhimurium; assay: Protection of mice from acute Salmonella typhimurium infection; format: in vivo; settings: control 0%
Procedure: Laboratory mice (CBAxC57B1 F1 hybrids) were split into groups of five which either received 0.5 ml saline or 0.5 ml saline plus various concentrations of different Hepreceptor peptides (1, 10 or 100 nanograms). 24 hours later the mice were acutely infected with Salmonella typhimurium (10,000 or 100,000 bacteria injected intraperitoneally per mouse). The percent of each group of mice surviving after 20 days was recorded (lethally infected control animals were dead within three days of infection).
Percent of mouse group surviving after 20 days infection

[4] = tested on: human Peripheral Blood Mononuclear Cells; assay: In vitro activation of human PBMC, tritiated thymidine incorporation; format: cell-based; settings: three days, Control 370
Procedure: Peripheral Blood Mononuclear Cells (PBMC) were separated from the peripheral blood of a […] donor using the standard method of fractionation in a ficoll gradient. The PBMC were suspended in culture medium containing RPMI1640 medium plus 10% fetal calf serum, 1 mM L-glutamin and antibiotics (BM). The cell suspension was placed in wells of a 96 hole microwell plate for cell cultivation, (100 microliters of suspension containing 100,000 cells per well). […] The negative control well contained BM but no peptide. The plate was incubated at 37° C. for three days then radioactive ^3H thymidine was added to a final concentration of 1 microcurie per ml. The incorporation of ^3H thymidine into the DNA of the cells was measured using a betacounter using standard procedures. The experiment was repeated twice and the results expressed as an average of the two experiments in radioactive counts per minute.

[5] = tested on: activated macrophages; assay: Induction of activated macrophages in mice (peritoneal exsudate); format: in vivo; settings: for activity in increasing activated macrophages relative to HEP1: 1.0 microgram peptide/mouse; for Activated macrophages as a percent of total number of cells: 1.0 microgram peptide/mouse injected abdominally, after 24 hours, saline 1.9
Procedure: Groups of three mice (CDAxC57B1)F1 weighing 22-24 g were injected abdominally with each peptide solution of 1.0 microgram of peptide dissolved in 0.5 ml of physiological saline. After 24 hours the animals were killed using neck vertebrae dislocation and 5 ml of Hanks solution was injected into the abdomen. The abdomen was massaged for 30 seconds and then the peritoneal liquid was collected. The collected liquid was filtered using a nylon filter into siliconised tubes containing 1.5 mg/ml EDTA. The number of nucleus containing cells in […] of filtrate were then assessed under microscopic examination using a Nihon hemocytometer. The cells were pelleted by centrifugation for 5 minutes at 800 g, the pellet was resuspended in fetal calf serum, the cell suspension was dropped on to a glass microscope slide and dried then fixed in methanol and stained with Romanovski's colouring agent. Morphological analysis of the cells of the peritoneal exsudate were performed using an Opton optical microscope at 1600 magnifications. The number of lymphocytes, resting macrophages, activated macrophages, granulocytes and other cell types were assessed.

[6] = IP injection 1 microgram per mouse
[7] = IP injection 10 micrograms per mouse
[8] = IP injection 0.01 micrograms per mouse
[9] = IP injection 0.1 micrograms per mouse
[10] = 10,000 bacteria per mouse, 1 nanogram peptide per mouse 24 hours before
[11] = 10,000 bacteria per mouse, 10 nanograms peptide per mouse
[12] = 10,000 bacteria per mouse, 100 nanograms peptide per mouse
[13] = 100,000 bacteria per mouse, 1 nanogram peptide per mouse
[14] = 100,000 bacteria per mouse, 10 nanograms peptide per mouse
[15] = 100,000 bacteria per mouse, 100 nanograms peptide per mouse

Row | Substance | number of antibody forming cells per one million nucleated spleen cells, re-based relative to 100 for control [1, 6] | number of antibody forming cells per one million nucleated spleen cells, re-based relative to 100 for control [1, 7] | IgG response recorded as OD [2, 8] | IgG response recorded as OD then rebased relative to 100 for each control [2, 8] | IgG response recorded as OD [2, 9] | IgG response recorded as OD then rebased relative to 100 for each control [2, 9] | IgG response recorded as OD [2, 6] | IgG response recorded as OD then rebased relative to 100 for each control [2, 6] | IgG response recorded as OD [2, 7] | incorporation of 3H thymidine ([4]; Peptide 0.0001 micro g/ml) | incorporation of 3H thymidine ([4]; Peptide 0.0003 micro g/ml) | incorporation of 3H thymidine ([4]; Peptide 0.001 micro g/ml) | incorporation of 3H thymidine ([4]; Peptide 0.003 micro g/ml) | incorporation of 3H thymidine ([4]; Peptide 0.01 micro g/ml) | incorporation of 3H thymidine ([4]; Peptide 0.03 micro g/ml) | incorporation of 3H thymidine ([4]; Peptide 0.1 micro g/ml) | incorporation of 3H thymidine ([4]; Peptide 0.3 micro g/ml) | incorporation of 3H thymidine ([4]; Peptide 1 micro g/ml) | incorporation of 3H thymidine ([4]; Peptide 3 micro g/ml) | incorporation of 3H thymidine ([4]; Peptide 10 micro g/ml) | also measured
1 | EREKE (Hepreceptor peptide) [Rupe1014] | 202 | 325 | 0.232 OD | 183 | 0.231 OD | 182 | 0.477 OD | 376 | 0.508 OD | – | – | – | – | – | – | – | – | – | – | – | IgG response recorded as OD then rebased relative to 100 for each control [2, 7]: 400
2 | EREKEQMMREKEEL (Hepreceptor peptide) [Rupe1024] | 401 | 397 | 0.250 OD | 164 | 0.262 OD | 172 | 0.489 OD | 322 | 0.445 OD | – | – | – | – | – | – | – | – | – | – | – | Percent of mouse group surviving after 20 days infection [3, 10]: 40%; Percent of mouse group surviving after 20 days infection [3, 11]: 40%; Percent of mouse group surviving after 20 days infection [3, 12]: 40%; Percent of mouse group surviving after 20 days infection [3, 13]: 0%; Percent of mouse group surviving after 20 days infection [3, 14]: 20%; Percent of mouse group surviving after 20 days infection [3, 15]: 40%; IgG response recorded as OD then rebased relative to 100 for each control [2, 7]: 293
3 | KEELMLRLQDYEE (Hepreceptor peptide) [Rupe2032] | 236 | 232 | 0.509 OD | 401 | 0.606 OD | 477 | 0.327 OD | 257 | 0.203 OD | – | – | – | – | – | – | – | – | – | – | – | IgG response recorded as OD then rebased relative to 100 for each control [2, 7]: 160
4 | KRRETVER (Hepreceptor peptide) [Rupe411] | – | – | – | – | – | – | – | – | – | 385 radioactive counts per minute | 510 radioactive counts per minute | 702 radioactive counts per minute | 598 radioactive counts per minute | 532 radioactive counts per minute | 500 radioactive counts per minute | 499 radioactive counts per minute | 486 radioactive counts per minute | 468 radioactive counts per minute | 420 radioactive counts per minute | 390 radioactive counts per minute | activity in increasing activated macrophages relative to HEP1 [5]: significantly more active than HEP1; Activated macrophages as a percent of total number of cells [5]: 5.5%
5 | RETVEREKE (Hepreceptor peptide) [Rupe614] | – | – | – | – | – | – | – | – | – | 464 radioactive counts per minute | 503 radioactive counts per minute | 550 radioactive counts per minute | 752 radioactive counts per minute | 607 radioactive counts per minute | 538 radioactive counts per minute | 596 radioactive counts per minute | 635 radioactive counts per minute | 600 radioactive counts per minute | 499 radioactive counts per minute | 412 radioactive counts per minute | –
6 | TEKKR (Hepreceptor peptide) [Rupe15] | 255 | 134 | – | – | – | – | – | – | – | – | – | – | – | – | – | – | – | – | – | – | Percent of mouse group surviving after 20 days infection [3, 10]: 20%; Percent of mouse group surviving after 20 days infection [3, 11]: 40%; Percent of mouse group surviving after 20 days infection [3, 12]: 40%; Percent of mouse group surviving after 20 days infection [3, 13]: 20%; Percent of mouse group surviving after 20 days infection [3, 14]: 20%; Percent of mouse group surviving after 20 days infection [3, 15]: 0%
7 | TEKKRRETV (Hepreceptor peptide) [Rupe19] | – | – | – | – | – | – | – | – | – | 426 radioactive counts per minute | 602 radioactive counts per minute | 718 radioactive counts per minute | 756 radioactive counts per minute | 545 radioactive counts per minute | 586 radioactive counts per minute | 537 radioactive counts per minute | 563 radioactive counts per minute | 509 radioactive counts per minute | 502 radioactive counts per minute | 517 radioactive counts per minute | –
8 | TEKKRRETVER (Hepreceptor peptide) [Rupe111] | – | – | – | – | – | – | – | – | – | 483 radioactive counts per minute | 483 radioactive counts per minute | 710 radioactive counts per minute | 665 radioactive counts per minute | 537 radioactive counts per minute | 642 radioactive counts per minute | 633 radioactive counts per minute | 668 radioactive counts per minute | 529 radioactive counts per minute | 486 radioactive counts per minute | 470 radioactive counts per minute | activity in increasing activated macrophages relative to HEP1 [5]: significantly more active than HEP1; Activated macrophages as a percent of total number of cells [5]: 4.3%
